In US6525089B1, “Pharmaceutical composition containing decursin” (Binex Co., Ltd., priority 1998, dated 2003):

Tests used:
U-937 cells [1] = test: NBT reduction test; format: cell-based, human; settings: 1 × 10^−7M, incubated 4 days
Method: U-937 cells were plated on a cell culture dish at a concentration of 2×10^5 cells/ml in a medium containing 10^−7M decursin and incubated in a 5% CO2 incubator at 37° C.
In the nitrobluetetrazolium (NBT) reduction test, cell solution (about 1×10^6 cells/ml) was well stirred and pelleted by centrifugation at 2000 rpm for 5 minutes. The pellets were suspended in 0.5 ml of medium, followed by the addition of a mixing solution (0.5 ml) containing 10^−6M formyl-methionine leucine phenylalanine (fMLP) and NBT 1.0 mg/DPBSml (1:9). The mixture was incubated at 37° C. for 30 minutes. The reaction was stopped in ice bath and centrifuged at 2000 rpm for 5 minutes. The supernatant was removed and then 200 μl of DPBS was added. The solution was lightly swayed and checked under a microscope to observe a minimum number of 200 cells. The number of NBT (+) cells was calculated by percentage.
The differentiation was investigated by using the fact that the differentiated leukocyte cells may generate superoxide anion by stimulation. […] The cultured mixture, which was reacted with superoxide, was reduced to form a precipitate. Then NBT was added to the precipitate (Table 7).

ICR mice = test: BUN and MDA in blood and MDA in renal tissue, alloxan-treated mice; format: in vivo; settings: alloxan 75 mg/kg i.v. + decursin 50 mg/kg orally for 10 days
Method: 2 days after ICR mice were given alloxan (75 mg/kg, i.v.), their glucose levels at fasting were measured to select high-glucose mice. The high-glucose mice were divided into two groups; physiological saline solution was given to one group, while decursin was orally administered to the other group at a dose of 50 mg/kg for 10 days. The alloxan-free group was also orally given physiological saline solution for 10 days. The body weighs were checked periodically, together with urinary tests. To isolate their sera and kidney, mice were slightly anesthetized with ether and their abdomens were dissected. The blood samples were collected from heart to isolate the sera. The kidney was perfused with 0.9% NaCl and isolated after removal of the blood. Then the weight of right kidney was measured. Further, to measure the protein amount from the kidney tissues, these tissues were assayed according to the Bradford method using Bio-Rad protein assay kit in the presence of bovine serum albumin as a reference standard. To measure the MDA in the kidney tissues, 0.4 ml of 10% sodium dodecylsulfate was added to 0.5 ml of 10% kidney-tissue homogenization solution and left in water bath at 37° C. for 30 minutes; With the subsequent addition of 0.1N-HCl (2 ml) and 0.67% TBA (1 ml), the mixture was voltexed and left in boiling water bath for 30 minutes. The mixture was further cooled in ice bath for 2˜3 minutes to stop the reaction. Then 2 ml of n-butanol was added to the mixture, stirred well and centrifuged at 3000 rpm for 10 minutes. The supernatant was collected to measure the absorbance at 532 nm. 10 μg/ml tetraethoxypropane (TEP) was employed as a reference standard. To measure the MDA in sera, 0.8% thiobarbituric acid (TBA) was added to 0.5 ml of sera and left in boiling water bath for 30 minutes. The mixture was further cooled in ice bath for 2˜3 minutes to stop the reaction. The supernatant was collected to measure the absorbance at 532 nm. 10 μg/ml TEP was employed as a reference standard.
Mice were orally given decursin at a dose of 50 mg/kg for 10 days continuously. Then various parameters such as BUN and MDA in the blood as a marker of renal failure were measured, together with urinary test. When […] (table 4), the BUN value of single alloxan-treated group, 17.4±3.7 mg/dl was recovered to the normal level (4.8±0.6 mg/dl) by the treatment of decursin. The MDA value of single alloxan-treated group, 0.51±0.07, was reduced to 0.36±0.03 by the treatment of decursin, which was similar to a normal control group. Thus it was noted that the damage in the kidney was completely recovered. Since the reduction of both MDA values in the blood and kidney tissues may be clinically reasonable and desirable, the MDA value in the kidney tissues was measured. As a result, the MDA value in the kidney tissues of a single alloxan-treated group, 13.24±5.93, was reduced to 5.63±0.99 by the treatment of decursin, which was lower than that of normal control group (8.44±1.01).

U-937 cells [2] = test: Esterase activity test: naphthol AS-D chloroacetate esterase; format: cell-based, human; settings: percentage of cells showing activity
Method: To determine naphthol AS-D chloroacetate esterase activity, the cultured solution of U-937 cells was pelleted by centrifugation at 2000 rpm for 5 minutes, followed by the addition of 100 μl PBS to prepare a cell-concentrated solution. A drop of the cell solution was put on a slide glass and dried for more than 1 hour. Then 40 ml of deionized water was preheated at 37° C. 1 ml of […] solution was mixed with 1 ml of Fast Red Violet LB base solution and left for 2 minutes. The mixture was added to 40 ml of preheated deionized water. After the addition of 5 ml of TRIZMAL TM 6.3) buffer solution (Sigma Co. T-3128) and 1 ml of naphthol AS-D chloroacetate solution, the resulting solution, which was turned to red color was poured on a petri dish. The cells on a slide glass were fixed with citrate-acetone-formaldehyde solution, (CAF solution) at room temperature. The cells were soaked in the previously prepared solution and incubated at 37° C. for 30 minutes at a dark place. The cells were completely washed with deionized water for more than 2 minutes and counterstained with hematoxylin solution for 2 minutes, washed with tap water and dried in the air. After completely dried, the cells were observed under a microscope to calculate the reddish cell numbers by percentage.
(§1) Thus it was considered that the cells were differentiated into macrophage.like cells by the action of decursin.

U-937 cells [3] = test: Esterase activity test: α-naphthyl acetate esterase; format: cell-based, human; settings: percentage of cells showing activity
Method: To determine α-naphthyl acetate esterase activity in the esterase activity test, the cultured solution of U-937 cells was pelleted by centrifugation at 2000 rpm for 5 minutes, followed by the addition of 100 μl PBS to prepare a cell-concentrated solution. A drop of the cell solution was put on a slide glass and dried for more than 1 hour. Then 40 ml of deionized water was preheated at 37° C. 1 ml of […] solution was mixed with 1 ml of Fast Blue BB base solution and left for 2 minutes. The mixture, being turned to yellow color with thick brown, was added to 40 ml of the preheated deionized water. After the addition of 5 ml of TRIZMAL TM 7.6 buffer solution (Sigma Co. 870-2) and 1 ml of α-naphthyl acetate solution, the resulting solution, which was turned to green color, was poured into a petri dish. The cells on a slide glass were fixed with citrate-acetone-formaldehyde solution (CAF solution) at room temperature. The cells were soaked in the previously prepared solution and incubated at 37° C. for 30 minutes at a dark place. The cells were completely washed with deionized water for more than 2 minutes and counterstained with hematoxylin solution for 2 minutes, washed with tap water and dried in the air. After completely dried, the cells were observed under a microscope to determine the blackish cell numbers.
as §1

CC(C)=CC(=O)O[C@H]1Cc2cc3ccc(=O)oc3cc2OC1(C)C [decursin]
NBT reduction test: positive cells (U-937 cells [1]): 43% | NBT reduction test: positive cells (U-937 cells [1]; listed as Decursin): 43.1 ± 4.0% | BUN (ICR mice): 4.8 ± 0.6 mg/dL | MDA in blood (ICR mice): 0.36 ± 0.03 µg/mL | MDA in renal tissue (ICR mice): 5.63 ± 0.99 µg/g | Naphtol AS-D chloroacetate esterase Activity (%) (U-937 cells [2]): 0.0% | α-Naphtylacetate esterase Activity (%) (U-937 cells [3]): 83% | α-Naphtylacetate esterase Activity (%) (U-937 cells [3]; listed as Decursin): 83.3 ± 3.0%
